This note sets out measurements from ChEMBL document CHEMBL1201862, “PubChem BioAssay data set” (2004).

Test systems include 786-0; A549; EKVX; HCT-15; HOP-62; KM12; MOLT-4; Malme-3M; NCI-H23; OVCAR-5; RPMI-8226; SK-MEL-2; U-251; NCI-H522.
Holding throughout (assay): inhibition of tumour cell growth, NCI panel, 48 h

The structures appear in SMILES notation.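 The compound was tested at five concentrations on cells cultured in 96-well plates, with a 48-hour exposure period. The concentration for 50% growth inhibition is given as GI50.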 Calls of active or inactive are those of the source. Cut-off read from the data, not from the text of the source: active = GI50 up to about 1.1 µM and inactive = higher.

For the compound `COc1ccccc1NS(=O)(=O)c1cc(C(C)(C)C)ccc1OCCOc1ccc(C(C)(C)C)cc1S(=O)(=O)Nc1ccccc1OC`, the GI50 is > 100 µM (inactive) in the test on 786-0; > 100 µM (inactive) in the test with A549; > 100 µM (inactive) with EKVX; greater than 100 µM in the test on HCT-15; > 100 µM (inactive) in the test with HOP-62; 45.4 µM (inactive) in the test on KM12. In addition, the GI50 in the test on MOLT-4, with Malme-3M, in the test with NCI-H23, in the test with OVCAR-5, in the test with RPMI-8226 and with SK-MEL-2 was > 100 µM (inactive) in each case. For the same compound, the GI50 with U-251 is > 100 µM (inactive).

Turning to `C[C@]12CCC(=O)C=C1CC[C@@H]1C2CC[C@]2(C)Nc3[nH]ncc3CC12` (stereo partly drawn), the GI50 in the test on 786-0 was > 100 µM (inactive); in the test with A549, > 100 µM (inactive); in the test with EKVX, 77.4 µM (inactive); in the test on HCT-15 it was greater than 100 µM; in the test on HOP-62, > 100 µM (inactive); in the test with KM12, > 100 µM (inactive). Also, the GI50 with MOLT-4, in the test on Malme-3M, with NCI-H23, in the test with OVCAR-5, with RPMI-8226 and with SK-MEL-2 was > 100 µM (inactive) throughout. Moreover, the GI50 in the test with U-251 is > 100 µM (inactive).

On to `O=C(Nc1ccccc1-c1n[nH]c(S)nc1=O)C(F)(F)F`, for which the GI50 with 786-0 was > 100 µM (inactive); in the test with A549, > 100 µM (inactive); in the test with EKVX, > 100 µM (inactive); in the test with HCT-15, greater than 100 µM; in the test on HOP-62, > 100 µM (inactive); in the test with KM12 it was > 100 µM (inactive). The GI50 with MOLT-4 is > 100 µM (inactive); with Malme-3M, > 100 µM (inactive); with NCI-H23, > 100 µM (inactive); with NCI-H522 it was 64.3 µM (inactive); in the test on OVCAR-5 it was > 100 µM (inactive); in the test on SK-MEL-2 it was > 100 µM (inactive). For the same compound, the GI50 with U-251 is > 100 µM (inactive).

Consider `CC1(C)OC2C(CO)OC(N/C(=N/C#N)Oc3ccccc3)C2O1` (stereo not drawn), for which the GI50 with 786-0 was > 10 µM (inactive); with A549 it was > 100 µM (inactive); with EKVX, > 100 µM (inactive); with HCT-15, greater than 100 µM; in the test with HOP-62, > 100 µM (inactive); with KM12, > 100 µM (inactive). In addition, the GI50 in the test on MOLT-4, in the test with NCI-H23, in the test on OVCAR-5, in the test on RPMI-8226 and with U-251 was > 100 µM (inactive) each time.

Take `CC(=O)NC1C(OCc2ccccc2)OC(CO)C(O)C1OC(C)C(=O)N[C@@H](C)C(=O)N[C@H](CCC(=O)OCCNc1c2ccccc2nc2cccc([N+](=O)[O-])c12)C(N)=O` (stereo partly drawn): the GI50 in the test with 786-0 is 0.000328 µM (active); with A549, 0.00146 µM (active); in the test on EKVX, 0.00165 µM (active); with HCT-15, 0.000166 µM; in the test with KM12, 0.00114 µM (active); in the test with MOLT-4, 0.00385 µM (active). The GI50 in the test on Malme-3M is 0.00158 µM (active); in the test on NCI-H23, 0.00148 µM (active); in the test on NCI-H522 it was 0.00174 µM (active); in the test on OVCAR-5, 0.00206 µM (active); in the test on RPMI-8226 it was 0.000782 µM (active); in the test on SK-MEL-2, 0.00211 µM (active).

In the case of `Cc1ccc(NC(=O)SCCC(=O)O)cc1`, the GI50 is > 100 µM (inactive) in the test with 786-0; > 100 µM (inactive) in the test with A549; > 100 µM (inactive) in the test on EKVX; greater than 100 µM in the test on HCT-15; > 100 µM (inactive) with HOP-62; > 100 µM (inactive) in the test on KM12. Further, the GI50 with MOLT-4, in the test on NCI-H23, in the test with NCI-H522, in the test with OVCAR-5, in the test with RPMI-8226 and in the test on SK-MEL-2 was > 100 µM (inactive) each time. In the test with U-251, the GI50 is > 100 µM (inactive).

In the case of `C/C(=N\NC(=O)C(N)=O)c1c(O)cc(C)oc1=O`, the GI50 in the test with 786-0 is > 100 µM (inactive); in the test on A549, > 100 µM (inactive); with EKVX, > 100 µM (inactive); with HCT-15 it was greater than 100 µM; in the test with HOP-62, > 100 µM (inactive); with KM12, > 100 µM (inactive). The GI50 in the test on MOLT-4, in the test on Malme-3M, in the test with NCI-H23, in the test with SK-MEL-2 and in the test on U-251 was > 100 µM (inactive) in each case.

`CC1CCC2(CC1)NN=c1s/c(=C\c3ccc(O)cc3)c(=O)n1N2` (stereo not drawn): the GI50 in the test with 786-0, in the test on A549, in the test on EKVX, in the test with HOP-62, with KM12 and in the test with MOLT-4 was > 100 µM (inactive) in each case. The GI50 with NCI-H23, with NCI-H522, in the test on RPMI-8226 and in the test with U-251 was > 100 µM (inactive) in each case.

Turning to `CN1CCCC2[C@@H]3CCC4c5nonc5CC[C@]4(C)C3CC[C@@]21C` (stereo partly drawn), the GI50 with 786-0 is > 100 µM (inactive); in the test on A549, > 100 µM (inactive); in the test with EKVX, > 100 µM (inactive); in the test with HCT-15, 57.7 µM; in the test with KM12, > 100 µM (inactive); with MOLT-4, > 100 µM (inactive). Also, the GI50 in the test with Malme-3M, in the test with NCI-H23, with NCI-H522, with OVCAR-5, with RPMI-8226 and with SK-MEL-2 was > 100 µM (inactive) throughout. For the same compound, the GI50 with U-251 is > 100 µM (inactive).

As to `CCN1C(=O)N2C(OC)c3ccccc3C(Br)C2(OC)C1=O` (stereo not drawn), the GI50 in the test with HCT-15 is greater than 100 µM; in the test with HOP-62 it was > 100 µM (inactive); in the test with KM12, > 100 µM (inactive); with MOLT-4, > 100 µM (inactive); in the test with Malme-3M, > 100 µM (inactive); in the test with NCI-H23, > 100 µM (inactive). The GI50 in the test with NCI-H522, in the test on OVCAR-5, in the test with RPMI-8226, with SK-MEL-2 and with U-251 was > 100 µM (inactive) each time.

As to `O=c1[nH]c(-c2ccc([N+](=O)[O-])cc2)nc2ccc(Cl)cc12`, the GI50 with 786-0 is > 100 µM (inactive); with A549, > 100 µM (inactive); with EKVX, > 100 µM (inactive); in the test on HCT-15, 94.4 µM; in the test with KM12, > 100 µM (inactive); with MOLT-4 it was 23.6 µM (inactive). Also, the GI50 in the test on Malme-3M was > 100 µM (inactive); with NCI-H23, > 100 µM (inactive); in the test with OVCAR-5, > 100 µM (inactive); with RPMI-8226, 47.1 µM (inactive); with SK-MEL-2, > 100 µM (inactive); in the test with U-251 it was 54.6 µM (inactive).

Regarding `Cn1c(=O)c2ccccc2c2nc3ccccc3nc21`, the GI50 in the test with 786-0 was 97.5 µM (inactive); in the test with A549 it was > 100 µM (inactive); in the test with EKVX it was > 100 µM (inactive); in the test on HCT-15 it was greater than 100 µM; in the test on KM12, > 100 µM (inactive); in the test with MOLT-4, > 100 µM (inactive). Moreover, the GI50 with Malme-3M, in the test with NCI-H23, in the test on OVCAR-5, with RPMI-8226, with SK-MEL-2 and with U-251 was > 100 µM (inactive) in each case.

`CC(C)(C)c1ccc(OCCOCCOc2ccc(C(C)(C)C)cc2S(N)(=O)=O)c(S(N)(=O)=O)c1`: the GI50 in the test with 786-0 was > 100 µM (inactive); in the test on A549, 35.8 µM (inactive); with EKVX, > 100 µM (inactive); with HCT-15 it was 45.6 µM; with HOP-62, > 100 µM (inactive); in the test on KM12, 52.1 µM (inactive). The GI50 in the test on MOLT-4 was 4.46 µM (inactive); with Malme-3M, 28.5 µM (inactive); with NCI-H23, > 100 µM (inactive); with OVCAR-5, > 100 µM (inactive); with RPMI-8226, 7.55 µM (inactive); in the test with SK-MEL-2, 67.8 µM (inactive). Moreover, the GI50 in the test with U-251 was > 100 µM (inactive).

Take `CNC(=S)N(C)C(=S)Nn1c(=O)c(C)nn(C)c1=S`: the GI50 was > 100 µM (inactive) in the test on 786-0; > 100 µM (inactive) in the test with A549; > 100 µM (inactive) in the test on EKVX; greater than 100 µM in the test on HCT-15; > 100 µM (inactive) in the test with HOP-62; > 100 µM (inactive) in the test on KM12. Further, the GI50 in the test with MOLT-4, in the test on NCI-H23, with NCI-H522, with OVCAR-5, with RPMI-8226 and in the test on U-251 was > 100 µM (inactive) in each case.

`CC12CCCC(C#N)(C1)OC2=O` (stereo not drawn): the GI50 in the test with 786-0, in the test with A549, in the test on EKVX, in the test on HOP-62, in the test on KM12 and with MOLT-4 was > 100 µM (inactive) each time. In addition, the GI50 with Malme-3M, with NCI-H23, in the test with NCI-H522, with OVCAR-5, with SK-MEL-2 and in the test on U-251 was > 100 µM (inactive) in each case.

With `COC(=O)C1=C(\O)C[C@@]2(C)CC[C@@H](C(=O)OC)C2C/C=C\1C(=O)OC` (stereo partly drawn), the GI50 was > 100 µM (inactive) with 786-0; 87.7 µM (inactive) in the test on A549; > 100 µM (inactive) with EKVX; greater than 100 µM in the test on HCT-15; > 100 µM (inactive) with HOP-62; > 100 µM (inactive) with KM12. For the same compound, the GI50 in the test on MOLT-4 was 46.6 µM (inactive); in the test on Malme-3M, > 100 µM (inactive); in the test with NCI-H522, > 100 µM (inactive); in the test on OVCAR-5, 46.3 µM (inactive); with RPMI-8226, 50.1 µM (inactive); in the test on U-251 it was > 100 µM (inactive).
